Test results from patent US20220323406A1, “METHODS AND COMPOSITIONS FOR DIFFERENTIATING STEM CELLS” (Massachusetts Institute of Technology, priority 2019, published 2022).

Legend:
ENR+CD organoids = assay: Primary screen: ATP (CellTiter-Glo 3D, CTG) cell number/viability, 2.5-D 384-well ENR+CD organoids; conditions: primary screen; for Z.CTG: standard z score;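 for all read-outs here: compounds given at plating and again on day 3 over a 6-day differentiation from ENR+CV stem-cell-enriched precursors, ATP measured on day 6, plate median as control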
[1] = test system: ENR+CD organoids (ISC to Paneth cell differentiation); assay: Primary screen: CCh-stimulated lysozyme secretion LYZ.S, 2.5-D 384-well ENR+CD organoid differentiation; type: cell-based, mouse; conditions: primary screen
Source text: (§1) High-throughput screening.

[2] = test system: ENR+CD organoids (ISC to Paneth cell differentiation); assay: Primary screen: basal (non-stimulated) lysozyme secretion LYZ.NS, 2.5-D 384-well ENR+CD organoid differentiation; type: cell-based, mouse
Source text: as §1

[3] = dose 0.08 uM, FC vs plate median
[4] = dose 0.40 uM, FC vs plate median
[5] = dose 2.00 uM, FC vs plate median
[6] = dose 10.00 uM, FC vs plate median

SMILES | Dose.FC.CTG (ENR+CD organoids; dose 0.08 uM) [log2 fold change] | Dose.FC.CTG (ENR+CD organoids; dose 0.40 uM) [log2 fold change] | Dose.FC.CTG (ENR+CD organoids; dose 2.00 uM) [log2 fold change] | Dose.FC.CTG (ENR+CD organoids; dose 10.00 uM) [log2 fold change] | Dose.FC.LYZ.S ([1]; dose 0.08 uM) [log2 fold change] | Dose.FC.LYZ.S ([1]; dose 0.40 uM) [log2 fold change] | Dose.FC.LYZ.S ([1]; dose 2.00 uM) [log2 fold change] | Dose.FC.LYZ.S ([1]; dose 10.00 uM) [log2 fold change] | Dose.FC.LYZ.NS ([2]; primary screen, dose 0.08 uM) [log2 fold change] | Dose.FC.LYZ.NS ([2]; primary screen, dose 0.40 uM) [log2 fold change] | Dose.FC.LYZ.NS ([2]; primary screen, dose 2.00 uM) [log2 fold change] | Dose.FC.LYZ.NS ([2]; primary screen, dose 10.00 uM) [log2 fold change] | Z.LYZ.NS (standard z score) ([2]; primary screen, dose 0.08 uM) | Z.LYZ.NS (standard z score) ([2]; primary screen, dose 0.40 uM) | Z.LYZ.NS (standard z score) ([2]; primary screen, dose 2.00 uM) | Z.LYZ.NS (standard z score) ([2]; primary screen, dose 10.00 uM) | Z.CTG (standard z score) (ENR+CD organoids; dose 0.08 uM) | Z.CTG (standard z score) (ENR+CD organoids; dose 0.40 uM) | Z.CTG (standard z score) (ENR+CD organoids; dose 2.00 uM) | Z.CTG (standard z score) (ENR+CD organoids; dose 10.00 uM) | other results
O=C(N/N=C/c1ccc(O)c(O)c1)c1cc2ccccc2cc1O [Dynasore] | −0.248 | −0.253 | −0.152 | −0.011 | 0.078 | 0.122 | −0.024 | 0.041 | 0.049 | −0.020 | 0.036 | 0.048 |  |  |  |  |  |  |  |  | Z.LYZ.NS ([2]; primary screen, standard z score, dose 0.08 uM): 0.431; Z.LYZ.NS ([2]; primary screen, standard z score, dose 0.40 uM): −0.176; Z.LYZ.NS ([2]; primary screen, standard z score, dose 2.00 uM): 0.314; Z.LYZ.NS ([2]; primary screen, standard z score, dose 10.00 uM): 0.414
FC(F)(F)c1ccc(/C=C/c2nc(COc3ccc(CCCCn4ccnn4)cc3)co2)cc1 [Mubritinib (TAK 165)] |  |  |  |  |  |  |  |  |  |  |  |  |  |  |  |  |  |  |  |  | Z.CTG (ENR+CD organoids; dose 0.08 uM): −1.252; Z.CTG (ENR+CD organoids; dose 0.40 uM): −0.812; Z.CTG (ENR+CD organoids; dose 2.00 uM): −1.265; Z.CTG (ENR+CD organoids; dose 10.00 uM): −1.240; Dose.FC.CTG (ENR+CD organoids; [3]): −0.524 log2 fold change; Dose.FC.CTG (ENR+CD organoids; [4]): −0.340 log2 fold change; Dose.FC.CTG (ENR+CD organoids; [5]): −0.530 log2 fold change; Dose.FC.CTG (ENR+CD organoids; [6]): −0.519 log2 fold change; Dose.FC.LYZ.S [1, 3]: −0.119 log2 fold change; Dose.FC.LYZ.S [1, 4]: −0.154 log2 fold change; Dose.FC.LYZ.S [1, 5]: −0.299 log2 fold change; Dose.FC.LYZ.S [1, 6]: −0.294 log2 fold change; Z.LYZ.NS ([2]; primary screen, dose 0.08 uM, standard z score): −0.500; Z.LYZ.NS ([2]; primary screen, dose 0.40 uM, standard z score): −1.687; Z.LYZ.NS ([2]; primary screen, dose 2.00 uM, standard z score): −1.950; Z.LYZ.NS ([2]; primary screen, dose 10.00 uM, standard z score): −2.092; Dose.FC.LYZ.NS ([2]; primary screen; dose 0.08 uM; FC vs plate median): −0.057 log2 fold change; Dose.FC.LYZ.NS ([2]; primary screen; dose 0.40 uM; FC vs plate median): −0.194 log2 fold change; Dose.FC.LYZ.NS ([2]; primary screen; dose 2.00 uM; FC vs plate median): −0.224 log2 fold change; Dose.FC.LYZ.NS ([2]; primary screen; dose 10.00 uM; FC vs plate median): −0.240 log2 fold change
N#CC1(c2ccc(NC(=O)c3cccnc3NCc3ccncc3)cc2)CCCC1 [Apatinib] | 0.223 | 0.302 | 0.270 | 0.218 | 0.173 | 0.142 | 0.112 | 0.075 | 0.103 | 0.038 | 0.076 | 0.012 | 0.897 | 0.327 | 0.660 | 0.101 |  |  |  |  | 
COc1cc(OC2CCN(C)CC2)ccc1Nc1ncc2c(n1)n(C1CCCC1)c(=O)n2C [AZ 3146] | −0.130 | −0.262 | −0.369 | −1.168 | 0.049 | −0.067 | −0.130 | −0.422 | 0.073 | −0.038 | −0.079 | −0.281 | 0.639 | −0.327 | −0.687 | −2.447 | −0.310 | −0.626 | −0.881 | −2.789 | 
COC(=O)CCSCc1ccc(-c2onc(C)c2NC(=O)OC(C)c2ccccc2Cl)cc1 (centres unmarked) [Ki16198] |  |  |  |  |  |  |  |  |  |  |  |  | 0.044 | −0.076 | 0.519 | −0.899 | −0.026 | −0.258 | −0.078 | 0.052 | Dose.FC.CTG (log2 fold change) (ENR+CD organoids; dose 0.08 uM): −0.011; Dose.FC.CTG (log2 fold change) (ENR+CD organoids; dose 0.40 uM): −0.108; Dose.FC.CTG (log2 fold change) (ENR+CD organoids; dose 2.00 uM): −0.033; Dose.FC.CTG (log2 fold change) (ENR+CD organoids; dose 10.00 uM): 0.022; Dose.FC.LYZ.S (log2 fold change) ([1]; dose 0.08 uM): 0.027; Dose.FC.LYZ.S (log2 fold change) ([1]; dose 0.40 uM): 0.031; Dose.FC.LYZ.S (log2 fold change) ([1]; dose 2.00 uM): −0.015; Dose.FC.LYZ.S (log2 fold change) ([1]; dose 10.00 uM): −0.037; Dose.FC.LYZ.NS (log2 fold change) ([2]; primary screen, dose 0.08 uM): 0.005; Dose.FC.LYZ.NS (log2 fold change) ([2]; primary screen, dose 0.40 uM): −0.009; Dose.FC.LYZ.NS (log2 fold change) ([2]; primary screen, dose 2.00 uM): 0.060; Dose.FC.LYZ.NS (log2 fold change) ([2]; primary screen, dose 10.00 uM): −0.103
